{
  "source": "patent US6713455B2",
  "about": "“6-O-carbamate-11,12-lacto-ketolide antimicrobials” (Ortho-McNeil Pharmaceutical, Inc., priority 2001, dated 2004)",
  "experiment_in_all_cases": "MIC, microdilution broth method (NCCLS)",
  "type_in_all_cases": "cell-based",
  "settings_in_all_cases": "35° C., 16-20 hours",
  "key": {"E. coli OC2605": {"system": "E. coli OC2605", "experimental": "(§1) Minimal inhibitory concentration (MIC) has been an indicator of in vitro antibacterial activity widely used in the art. The in vitro antimicrobial activity of the compounds was determined by the microdilution broth method following the test method from the National Committee for Clinical Laboratory Standards (NCCLS). This method is described in the NCCLS Document M7-A4, Vol.17, No.2, “Methods for Dilution Antimicrobial Susceptibility Test for Bacteria that Grow Aerobically—Fourth Edition”, which is incorporated herein by reference.\n(§2) In this method two-fold serial dilutions of drug in cation adjusted Mueller-Hinton broth are added to wells in microdilution trays. The test organisms are prepared by adjusting the turbidity of actively growing broth cultures so that the final concentration of test organism after it is added to the wells is approximately 5×10^4 CFU/well.\n(§3) Following inoculation of the microdilution trays, the trays are incubated at 35° C. for 16-20 hours and then read. […] The amount of growth in the wells containing the test compound is compared with the amount of growth in the growth-control wells (no test compound) used in each tray. As set forth in Table 1, compounds of the present invention were tested against a variety of Gram positive and Gram negative pathogenic bacteria resulting in a range of activities depending on the organism tested."}, "E. faecalis ATCC29212": {"system": "E. faecalis ATCC29212", "experimental": "as §1, §2, §3"}, "H. influenzae ATCC49247": {"system": "H. influenzae ATCC49247", "experimental": "as §1, §2, §3"}, "S. aureus ATCC29213": {"system": "S. aureus ATCC29213", "experimental": "as §1, §2, §3"}, "S. pneumoniae ATCC49619": {"system": "S. pneumoniae ATCC49619", "experimental": "as §1, §2, §3"}},
  "data": [
    {"smiles": "CCC1OC(=O)C(C)C(=O)C(C)C(OC2OC(C)CC(N(C)C)C2O)C(C)(OC(N)=O)CC(C)C(=O)C(C)C2CC(=O)OC12C", "note": "(centres unmarked) [Compound 1]", "values": [
      {"measurement": "MIC (μg/mL) A", "setting": "E. coli OC2605", "value": ">16", "unit": "µg/mL"},
      {"measurement": "MIC (μg/mL) C", "setting": "E. faecalis ATCC29212", "value": 2, "unit": "µg/mL"},
      {"measurement": "MIC (μg/mL) E", "setting": "H. influenzae ATCC49247", "value": ">16", "unit": "µg/mL"},
      {"measurement": "MIC (μg/mL) B", "setting": "S. aureus ATCC29213", "value": 8, "unit": "µg/mL"},
      {"measurement": "MIC (μg/mL) D", "setting": "S. pneumoniae ATCC49619", "value": 0.5, "unit": "µg/mL"}
    ]},
    {"smiles": "CCC1OC(=O)C(C)C(=O)C(C)C(OC2OC(C)CC(N(C)C)C2O)C(C)(OC(=O)NCc2ccc(-c3cncnc3)cc2)CC(C)C(=O)C(C)C2CC(=O)OC12C", "note": "(centres unmarked) [Compound 2]", "values": [
      {"measurement": "MIC (μg/mL) A", "setting": "E. coli OC2605", "value": ">16", "unit": "µg/mL"},
      {"measurement": "MIC (μg/mL) C", "setting": "E. faecalis ATCC29212", "value": 0.12, "unit": "µg/mL"},
      {"measurement": "MIC (μg/mL) E", "setting": "H. influenzae ATCC49247", "value": 16, "unit": "µg/mL"},
      {"measurement": "MIC (μg/mL) B", "setting": "S. aureus ATCC29213", "value": 1, "unit": "µg/mL"},
      {"measurement": "MIC (μg/mL) D", "setting": "S. pneumoniae ATCC49619", "value": 0.06, "unit": "µg/mL"}
    ]},
    {"smiles": "CCC1OC(=O)C(C)C(=O)C(C)C(OC2OC(C)CC(N(C)C)C2O)C(C)(OC(=O)NCc2ccc3ncccc3c2)CC(C)C(=O)C(C)C2CC(=O)OC12C", "note": "(centres unmarked) [Compound 3]", "values": [
      {"measurement": "MIC (μg/mL) A", "setting": "E. coli OC2605", "value": ">16", "unit": "µg/mL"},
      {"measurement": "MIC (μg/mL) C", "setting": "E. faecalis ATCC29212", "value": 0.25, "unit": "µg/mL"},
      {"measurement": "MIC (μg/mL) E", "setting": "H. influenzae ATCC49247", "value": 8, "unit": "µg/mL"},
      {"measurement": "MIC (μg/mL) B", "setting": "S. aureus ATCC29213", "value": 1, "unit": "µg/mL"},
      {"measurement": "MIC (μg/mL) D", "setting": "S. pneumoniae ATCC49619", "value": 0.06, "unit": "µg/mL"}
    ]},
    {"smiles": "CCC1OC(=O)C(C)C(=O)C(C)C(OC2OC(C)CC(N(C)C)C2O)C(C)(OC(=O)NCc2ccc(C(=O)O)cc2)CC(C)C(=O)C(C)C2CC(=O)OC12C", "note": "(centres unmarked) [Compound 4]", "values": [
      {"measurement": "MIC (μg/mL) A", "setting": "E. coli OC2605", "value": ">16", "unit": "µg/mL"},
      {"measurement": "MIC (μg/mL) C", "setting": "E. faecalis ATCC29212", "value": 8, "unit": "µg/mL"},
      {"measurement": "MIC (μg/mL) E", "setting": "H. influenzae ATCC49247", "value": ">16", "unit": "µg/mL"},
      {"measurement": "MIC (μg/mL) B", "setting": "S. aureus ATCC29213", "value": ">16", "unit": "µg/mL"},
      {"measurement": "MIC (μg/mL) D", "setting": "S. pneumoniae ATCC49619", "value": 1, "unit": "µg/mL"}
    ]},
    {"smiles": "CCC1OC(=O)C(C)C(=O)C(C)C(OC2OC(C)CC(N(C)C)C2O)C(C)(OC(=O)NCC=Cc2cnc3ccccc3c2)CC(C)C(=O)C(C)C2CC(=O)OC12C", "note": "(centres unmarked) [Compound 5]", "values": [
      {"measurement": "MIC (μg/mL) A", "setting": "E. coli OC2605", "value": 16, "unit": "µg/mL"},
      {"measurement": "MIC (μg/mL) C", "setting": "E. faecalis ATCC29212", "value": 0.06, "unit": "µg/mL"},
      {"measurement": "MIC (μg/mL) E", "setting": "H. influenzae ATCC49247", "value": 16, "unit": "µg/mL"},
      {"measurement": "MIC (μg/mL) B", "setting": "S. aureus ATCC29213", "value": 0.5, "unit": "µg/mL"},
      {"measurement": "MIC (μg/mL) D", "setting": "S. pneumoniae ATCC49619", "value": 0.03, "unit": "µg/mL"}
    ]},
    {"smiles": "CCC1OC(=O)C(C)C(=O)C(C)C(OC2OC(C)CC(N(C)C)C2O)C(C)(OC(=O)NCC=Cc2ccc(-c3ccccn3)cc2)CC(C)C(=O)C(C)C2C(OC)C(=O)OC12C", "note": "(centres unmarked) [Compound 6]", "values": [
      {"measurement": "MIC (μg/mL) A", "setting": "E. coli OC2605", "value": ">16", "unit": "µg/mL"},
      {"measurement": "MIC (μg/mL) C", "setting": "E. faecalis ATCC29212", "value": 1, "unit": "µg/mL"},
      {"measurement": "MIC (μg/mL) E", "setting": "H. influenzae ATCC49247", "value": 8, "unit": "µg/mL"},
      {"measurement": "MIC (μg/mL) B", "setting": "S. aureus ATCC29213", "value": 1, "unit": "µg/mL"},
      {"measurement": "MIC (μg/mL) D", "setting": "S. pneumoniae ATCC49619", "value": 0.25, "unit": "µg/mL"}
    ]},
    {"smiles": "CC[C@H]1OC(=O)[C@H](C)C(=O)[C@H](C)[C@@H](OC2O[C@H](C)C[C@H](N(C)C)[C@H]2O)[C@](C)(OC(=O)NC/C=C/c2ccc(-c3ncccn3)cc2)C[C@@H](C)C(=O)C(C)C2CC(=O)O[C@@]21C", "note": "(some centres unmarked) [Compound 7]", "values": [
      {"measurement": "MIC", "setting": "E. coli OC2605; Escherichia coli", "value": "> 16", "unit": "µg/mL"},
      {"measurement": "MIC", "setting": "E. faecalis ATCC29212; Enterococcus faecalis", "value": 0.12, "unit": "µg/mL"},
      {"measurement": "MIC", "setting": "H. influenzae ATCC49247; Haemophilus influenzae", "value": 8, "unit": "µg/mL"},
      {"measurement": "MIC", "setting": "S. aureus ATCC29213; Staphylococcus aureus", "value": 0.25, "unit": "µg/mL"},
      {"measurement": "MIC", "setting": "S. pneumoniae ATCC49619; Streptococcus pneumoniae", "value": 0.06, "unit": "µg/mL"}
    ]},
    {"smiles": "CCC1OC(=O)C(C)C(=O)C(C)C(OC2OC(C)CC(N(C)C)C2O)C(C)(OC(=O)NCC=Cc2ccc(-c3cncnc3)cc2)CC(C)C(=O)C(C)C2CC(=O)OC12C", "note": "(centres unmarked) [Compound 9]", "values": [
      {"measurement": "MIC (μg/mL) A", "setting": "E. coli OC2605", "value": ">16", "unit": "µg/mL"},
      {"measurement": "MIC (μg/mL) C", "setting": "E. faecalis ATCC29212", "value": 0.25, "unit": "µg/mL"},
      {"measurement": "MIC (μg/mL) E", "setting": "H. influenzae ATCC49247", "value": 8, "unit": "µg/mL"},
      {"measurement": "MIC (μg/mL) B", "setting": "S. aureus ATCC29213", "value": 0.5, "unit": "µg/mL"},
      {"measurement": "MIC (μg/mL) D", "setting": "S. pneumoniae ATCC49619", "value": 0.06, "unit": "µg/mL"}
    ]},
    {"smiles": "CCC1OC(=O)C(C)C(=O)C(C)C(OC2OC(C)CC(N(C)C)C2O)C(C)(OC(=O)NCC=Cc2ccc3cccnc3c2)CC(C)C(=O)C(C)C2C(OC)C(=O)OC12C", "note": "(centres unmarked) [Compound 10]", "values": [
      {"measurement": "MIC (μg/mL) A", "setting": "E. coli OC2605", "value": ">16", "unit": "µg/mL"},
      {"measurement": "MIC (μg/mL) C", "setting": "E. faecalis ATCC29212", "value": 0.5, "unit": "µg/mL"},
      {"measurement": "MIC (μg/mL) E", "setting": "H. influenzae ATCC49247", "value": 8, "unit": "µg/mL"},
      {"measurement": "MIC (μg/mL) B", "setting": "S. aureus ATCC29213", "value": 1, "unit": "µg/mL"},
      {"measurement": "MIC (μg/mL) D", "setting": "S. pneumoniae ATCC49619", "value": 0.12, "unit": "µg/mL"}
    ]},
    {"smiles": "CCC1OC(=O)C(C)C(=O)C(C)C(OC2OC(C)CC(N(C)C)C2O)C(C)(OC(=O)NCC=Cc2cncc(-c3ccccn3)c2)CC(C)C(=O)C(C)C2CC(=O)OC12C", "note": "(centres unmarked) [Compound 11]", "values": [
      {"measurement": "MIC (μg/mL) A", "setting": "E. coli OC2605", "value": ">16", "unit": "µg/mL"},
      {"measurement": "MIC (μg/mL) C", "setting": "E. faecalis ATCC29212", "value": 0.12, "unit": "µg/mL"},
      {"measurement": "MIC (μg/mL) E", "setting": "H. influenzae ATCC49247", "value": 4, "unit": "µg/mL"},
      {"measurement": "MIC (μg/mL) B", "setting": "S. aureus ATCC29213", "value": 0.5, "unit": "µg/mL"},
      {"measurement": "MIC (μg/mL) D", "setting": "S. pneumoniae ATCC49619", "value": 0.06, "unit": "µg/mL"}
    ]}
  ]
}
